Columns and labels:
LBP-8 = target: T1, LBP-8 (Caenorhabditis elegans, UniProt O02324); test: fluorescence displacement of […],8-ANS; assay type: binding
T1 sequence (O02324 1-137): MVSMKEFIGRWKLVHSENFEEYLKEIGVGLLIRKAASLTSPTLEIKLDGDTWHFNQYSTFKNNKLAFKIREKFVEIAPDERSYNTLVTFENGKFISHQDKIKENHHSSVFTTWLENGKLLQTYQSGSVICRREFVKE

NHR-80 = target: T2, NHR-80 (Caenorhabditis elegans, UniProt Q8ITW8); test: intrinsic fluorescence quenching of GST-NHR-80 with increasing OEA; assay type: binding
T2 sequence (Q8ITW8 1-504): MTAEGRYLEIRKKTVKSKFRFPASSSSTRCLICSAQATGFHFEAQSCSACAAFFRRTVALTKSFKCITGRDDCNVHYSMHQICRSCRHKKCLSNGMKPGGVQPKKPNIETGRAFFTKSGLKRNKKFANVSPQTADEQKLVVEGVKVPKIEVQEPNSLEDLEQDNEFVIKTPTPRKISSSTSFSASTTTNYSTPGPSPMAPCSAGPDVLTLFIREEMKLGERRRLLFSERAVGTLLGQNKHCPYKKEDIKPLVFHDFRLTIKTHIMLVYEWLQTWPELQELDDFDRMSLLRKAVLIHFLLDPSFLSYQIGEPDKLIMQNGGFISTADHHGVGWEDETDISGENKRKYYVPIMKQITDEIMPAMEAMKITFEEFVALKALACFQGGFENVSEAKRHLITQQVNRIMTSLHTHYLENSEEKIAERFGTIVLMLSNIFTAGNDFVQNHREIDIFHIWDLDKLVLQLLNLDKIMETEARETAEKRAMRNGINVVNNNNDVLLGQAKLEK

| Structure (SMILES) | fluorescence displacement of 1,8-ANS (LBP-8) | Kd (NHR-80) |
| --- | --- | --- |
| CCCCC/C=C\C/C=C\C/C=C\C/C=C\CCCC(=O)O [AA, arachidonic acid] | In fluorescence-based binding assays, all four lipids bound to LBP-8 | – |
| CCCCC/C=C\C/C=C\C/C=C\CCCCCCC(=O)O [DGLA, dihomo-γ-linolenic acid] | In fluorescence-based binding assays, all four lipids bound to LBP-8 | – |
| CCCCCCCC/C=C\CCCCCCCC(=O)NCCO [OEA, oleoylethanolamide] | – | 7.84 µM |
| CC/C=C\C/C=C\C/C=C\C/C=C\CCCCCCC(=O)O [ω-3 AA, ω-3 arachidonic acid] | In fluorescence-based binding assays, all four lipids bound to LBP-8 | – |

— article PMC4425353 (Science (New York, N.Y.), 2015)
